In brackets after ≈: the same amount, converted by molar mass.
What was measured:
[1] = target: T1, B-cell lymphoma 6 protein (Homo sapiens, UniProt P41182, C67R/C84N/C8Q); test: Binding affinity to N-terminal His6-tagged human BCL6 BTB domain C8Q/C67R/C84N mutant expressed in Escherichia coli BL21 (DE3) by surface plasmon resonance spectrometry
[2] = target: T1, B-cell lymphoma 6 protein; test: Inhibition of SMRT2 H1426W mutant peptide binding to N-terminal His6-tagged human BCL6 BTB domain C8Q/C67R/C84N mutant expressed in Escherichia coli BL21 (DE3) preincubated for 30 mins followed by SMRT2 H1426W mutant peptide addition measured after 60 mins by time-resolved fluorescence resonance energy transfer assay
[3] = Octanol-buffer partition co-efficient, log D of the compound at pH 7.4 after 30 mins by shake flask method; assay type: physicochemical
[4] = tested on: SU-DHL-2; test: Antiproliferative activity against BCL6 dependent human SU-DHL-2 cells after 3 days by CellTiter-Glo assay; assay type: functional; conditions: SU-DHL-2, 72 h
[5] = tested on: OCI-Ly3; test: Antiproliferative activity against BCL6 dependent human OCI-LY3 cells after 3 days by CellTiter-Glo assay; assay type: functional; conditions: OCI-Ly3, 72 h
[6] = tested on: AMO1; test: Antiproliferative activity against BCL6 dependent human AMO1 cells after 3 days by CellTiter-Glo assay; assay type: functional; conditions: AMO1, 72 h
[7] = tested on: OCI-Ly1; test: Antiproliferative activity against BCL6 dependent human OCI-LY1 cells after 3 days by CellTiter-Glo assay; assay type: functional; conditions: OCI-Ly1, 72 h
[8] = tested on: U2932; test: Antiproliferative activity against BCL6 dependent human U2932 cells after 3 days by CellTiter-Glo assay; assay type: functional; conditions: U2932, 72 h
[9] = tested on: TMD8; test: Antiproliferative activity against BCL6 dependent human TMD8 cells after 3 days by CellTiter-Glo assay; assay type: functional; conditions: TMD8, 72 h
[10] = tested on: KARPAS-422; test: Antiproliferative activity against BCL6 […] human KARPAS422 cells after 3 days by CellTiter-Glo assay; assay type: functional; conditions: KARPAS-422, 72 h
[11] = species on record: Homo sapiens; test: Selectivity ratio of IC50 for human CK2 protein to IC50 for N-terminal His6-tagged human BCL6 BTB domain C8Q/C67R/C84N mutant
[12] = tested on: OCI-LY19; test: Antiproliferative activity against BCL6 independent human OCI-LY19 cells after 3 days by CellTiter-Glo assay; assay type: functional; conditions: OCI-LY19, 72 h
[13] = tested on: SUD4; test: Antiproliferative activity against BCL6 dependent human SUDHL4 cells after 3 days by CellTiter-Glo assay; assay type: functional; conditions: SU-DHL-4, 72 h
[14] = species on record: Homo sapiens; test: Inhibition of human CK2 protein at 1 uM relative to control
[15] = tested on: OCI-Ly10; test: Antiproliferative activity against BCL6 dependent human OCI-LY10 cells after 3 days by CellTiter-Glo assay; assay type: functional; conditions: OCI-Ly10, 72 h
[16] = Inhibition of human CK2 protein
[17] = Apparent permeability in human Caco2 cells; assay type: ADME, cell-based; conditions: Caco-2
[18] = Aqueous solubility of the compound at pH 7.4 after 24 hrs by LC-UV method; assay type: physicochemical

Compound	Kd [1]	IC50 [2]	logD at 0.5 h [3]	GI50 [4]	GI50 [5]	GI50 [6]	GI50 [7]	GI50 [8]	GI50 [9]	GI50 [10]	Ratio IC50 [11]	GI50 [12]	GI50 [13]	inhibition [14]	GI50 [15]	IC50 [16]	Papp [17]	solubility at 24 h [18]
N#Cc1cnn2c(NC3CC3)ccnc12	319 µM	> 99 µM																
N#Cc1cnn2c3cc(nc12)N1C[C@H](C[C@H]1CO)OC/C=C/COc1cc(cc2c1NC(=O)CC2)N3	0.0065 µM	0.0029 µM	2.2	3.16 µM	3.98 µM	15.8 µM	10 µM	6.31 µM	7.94 µM	7.94 µM	220	6.31 µM	7.94 µM	> 60%	5.01 µM			
O=C1CCc2cc3cc(c2N1CCCN1CCOCC1)OC/C=C/CO[C@H]1C[C@@H](CO)N(C1)c1cc(n2ncc(Cl)c2n1)N3				10 µM	10 µM	12.6 µM	10 µM	10 µM	10 µM	12.6 µM		7.94 µM	12.6 µM		7.94 µM	5.9 µM		
O=C1CCc2cc3cc(c2N1)OC/C=C/CO[C@H]1C[C@@H](CO)N(C1)c1cc(n2ncc(Cl)c2n1)N3				3.98 µM	2 µM	3.16 µM	3.98 µM	2.51 µM	2.51 µM	5.01 µM		2 µM	6.31 µM		1.58 µM	7.3 µM	46 ×10⁻⁶ cm/s	31 µM (≈ 15.4 µg/mL)
O=C1CCc2cc3cc(c2N1CC1CC(F)(F)C1)OC/C=C/CO[C@H]1C[C@@H](CO)N(C1)c1cc(n2ncc(Cl)c2n1)N3				7.94 µM	12.6 µM	25.1 µM	7.94 µM	6.31 µM	10 µM	10 µM		6.31 µM	10 µM		7.94 µM	2.1 µM		
N#Cc1cnn2c3cc(nc12)N1C[C@H](C[C@H]1CO)OCCCCOc1cc(cc2c1NC(=O)CC2)N3				12.6 µM	12.6 µM	20 µM	25.1 µM	15.8 µM	15.8 µM	20 µM		15.8 µM	25.1 µM		10 µM	0.4 µM		
O=C1CCc2cc3cc(c2N1CC1CC1)OC/C=C/CO[C@H]1C[C@@H](CO)N(C1)c1cc(n2ncc(Cl)c2n1)N3				20 µM	> 31.6 µM	> 31.6 µM	> 31.6 µM	10 µM	25.1 µM	> 31.6 µM		15.8 µM	> 31.6 µM		20 µM	2.2 µM		
O=C(O)CCN1C(=O)/C(=C2/C(=O)Nc3ccc(Cl)cc32)SC1=S				12.6 µM	20 µM	20 µM	20 µM	12.6 µM	10 µM	12.6 µM		10 µM	10 µM		12.6 µM	0.69 µM		
N#Cc1cnn2c(NC3CC3)cc(N3CCCC3)nc12		> 99 µM																
N#Cc1cnn2c(Nc3ccc4c(c3)CCC(=O)N4)cc(N3CCC[C@H]3CC(=O)O)nc12	1.1 µM	0.35 µM																
COc1cccc(CN2C(=O)CCc3cc4cc(c32)OC/C=C/CO[C@H]2C[C@@H](CO)N(C2)c2cc(n3ncc(C#N)c3n2)N4)c1				2.51 µM	6.31 µM	10 µM	3.16 µM	3.98 µM	3.98 µM	5.01 µM		5.01 µM	6.31 µM		3.98 µM	1.2 µM		
N#Cc1cnn2c(Nc3ccc4c(c3)CCC(=O)N4)cc(N3CCC[C@@H]3CO)nc12		0.59 µM																
N#Cc1cnn2c(Nc3ccc4c(c3)CCC(=O)N4)cc(N3CCC[C@H]3CO)nc12	0.5 µM	0.37 µM	2.3															
